One series concerns the target T1, human EAAT3 (Homo sapiens, UniProt P43005).
T1 construct: expressed in transfected cells
T1 sequence (P43005 1-524): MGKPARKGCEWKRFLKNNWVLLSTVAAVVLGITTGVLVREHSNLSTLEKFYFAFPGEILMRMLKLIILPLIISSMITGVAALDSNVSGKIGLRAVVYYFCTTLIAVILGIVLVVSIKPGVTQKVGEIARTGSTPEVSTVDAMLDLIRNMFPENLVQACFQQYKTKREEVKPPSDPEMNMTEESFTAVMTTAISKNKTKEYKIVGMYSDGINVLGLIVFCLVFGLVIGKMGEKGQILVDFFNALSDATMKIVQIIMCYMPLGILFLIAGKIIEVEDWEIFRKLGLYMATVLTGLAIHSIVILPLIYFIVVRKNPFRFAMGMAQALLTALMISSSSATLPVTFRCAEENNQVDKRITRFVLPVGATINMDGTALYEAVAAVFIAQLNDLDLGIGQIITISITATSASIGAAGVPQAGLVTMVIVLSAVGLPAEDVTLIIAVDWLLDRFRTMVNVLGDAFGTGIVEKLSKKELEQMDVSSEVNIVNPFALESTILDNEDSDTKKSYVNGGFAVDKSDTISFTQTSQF
Nature of the series: FLIPR Membrane Potential (FMP) assay, antagonist potency at human EAAT3. The class given is cell-based. Particulars: HEK-293 cells stably expressing human EAAT3; L-glutamate as agonist at EC80; Kb from IC50 by Cheng-Prusoff equation. The method, then: The FLIPR Membrane Potential (FMP) Assay
HEK-293 cells stably expressing human EAAT3 were seeded at 55 000 cells/well in growth medium (DMEM glutamate free (Invitrogen 11960-044), 1% Pen Strep (10 ml/l GIBCO BRL N°15140-023), 10% FCS non dialysed heat inactivated, 5 mg/l puromycin) in poly-D-lysine treated 96-well black microtiter plates with clear-bottom. After 24 h, the growth medium was removed and 100 μl/well of Krebs buffer (140 mM NaCl, 4.7 mM KCl, 2.5 mM CaCl2, 1.2 mM MgCl2, 11 mM HEPES, 10 mM D-glucose, pH=7.4) added. The cells were then loaded by adding 100 μl/well FMP assay dye (FLIPR Membrane Potential assay reagent, Molecular Devices). The 96-well plates were then incubated at 37° C. for 1 h. The depolarization of the cells will cause more dye to enter in the cells, where it will bind to intracellular proteins and lipids and cause an increase in the fluorescence signal. Antagonist potency at human EAAT3 was determined by using L-glutamate as agonist at a concentration which gives 80% of the maximum response. The antagonists were applied 15 min before the application of the agonist L-glutamate. The assays were performed at room temperature and measurements done by using a Fluorometric Imaging Plate Reader (FLIPR, Molecular Devices) and filter #2. Responses were measured as peak increase in fluorescence minus basal (i.e. fluorescence without addition of L-glutamate). Kb was determined using the Cheng-Prusoff equation Kb=IC50/[1+(A/EC50)], where IC50 is the concentration of the antagonist producing 50% inhibition, A is the concentration of the agonist against which the IC50 is being determined (at EC80) and EC50 is the concentration of the agonist producing 50% […].

One may read the melting point as the temperature, or range, at which the solid turns liquid. A word on the Kb: it is the equilibrium dissociation constant of an antagonist, usually derived from a functional assay. A low value points to a more potent antagonist. As to `CCC(C)(C)NC(=O)c1cc(-c2ccc(Cl)cc2)cc(-n2cnnc2C(C)C)c1` [Example 25, 3-(4-Chlorophenyl)-N-(2-methylbutan-2-yl)-5-(3-propan-2-yl-1,2,4-triazol-4-yl)-benzamide], the melting point stood at 103 °C. At human EAAT3, this molecule showed a Kb of 120 nM.

The molecule `CC(C)(C)NC(=O)c1cc(-c2ccc(Cl)cc2)cc(-n2cnnc2CO)c1` [Example 26, N-tert-Butyl-3-(4-chlorophenyl)-5-[3-(hydroxymethyl)-1,2,4-triazol-4-yl]-benzamide] showed a melting point of 210 °C. Further, the Kb on human EAAT3 was determined as 145 nM.

Turning to `CC(C)(C)NC(=O)c1cc(-c2ccc(Cl)cc2)cc(-n2cnnc2C(C)(C)O)c1` [Example 27, N-tert-Butyl-3-(4-chlorophenyl)-5-[3-(2-hydroxypropan-2-yl)-1,2,4-triazol-4-yl]-benzamide], the melting point came out at 163 °C. Besides, on human EAAT3, the Kb was 64 nM.

Turning to `CC(C)c1nncn1-c1cc(C(=O)NC(C)(C)C)cc(-c2ccc(F)c(F)c2)c1` [Example 28, N-tert-Butyl-3-(3,4-difluorophenyl)-5-(3-propan-2-yl-1,2,4-triazol-4-yl)-benzamide], the melting point came to 115 °C. The molecule further returned a Kb at human EAAT3 of 160 nM.

For `COc1ccc(-c2cc(C(=O)NC(C)(C)C)cc(-n3cnnc3C(C)C)c2)cc1` [Example 29, N-tert-Butyl-3-(4-methoxyphenyl)-5-(3-propan-2-yl-1,2,4-triazol-4-yl)-benzamide], the melting point worked out at 107 °C. Besides, the Kb at human EAAT3 worked out at 290 nM.

As to `CC(C)c1nncn1-c1cc(C(=O)NC(C)(C)C)cc(-c2ccc(Cl)c(F)c2)c1` [Example 30, N-tert-Butyl-3-(4-chloro-3-fluorophenyl)-5-(3-propan-2-yl-1,2,4-triazol-4-yl)-benzamide], the melting point was found to be 135 °C. The Kb on human EAAT3 stood at 100 nM.

As for `Cc1cc(-c2cc(C(=O)NC(C)(C)C)cc(-n3cnnc3C(C)C)c2)ccc1F` [Example 31, N-tert-Butyl-3-(4-fluoro-3-methyl-phenyl)-5-(3-propan-2-yl-1,2,4-triazol-4-yl)-benzamide], the melting point was found to be 106 °C. The molecule also returned a Kb at human EAAT3 of 98 nM.

`Cc1ccc(-c2cc(C(=O)NC(C)(C)C)cc(-n3cnnc3C(C)C)c2)cc1F` [Example 32, N-tert-Butyl-3-(3-fluoro-4-methyl-phenyl)-5-(3-propan-2-yl-1,2,4-triazol-4-yl)-benzamide] returned a melting point of 109 °C. Besides, the Kb on human EAAT3 was determined as 120 nM.

Regarding `Cc1ccc(-c2cc(C(=O)NC(C)(C)C)cc(-n3cnnc3C(C)C)c2)cc1` [Example 33, N-tert-Butyl-3-(4-methyl-phenyl)-5-(3-propan-2-yl-1,2,4-triazol-4-yl)-benzamide], the melting point was determined as 100 °C. The molecule further returned a Kb at human EAAT3 of 100 nM.

Take `CC(C)c1nncn1-c1cc(C(=O)NC(C)(C)C)cc(-c2ccc(C#N)cc2)c1` [Example 34, N-tert-Butyl-3-(4-cyano-phenyl)-5-(3-propan-2-yl-1,2,4-triazol-4-yl)-benzamide]: the melting point worked out at 290 °C. On human EAAT3, the Kb came out at 220 nM.

Molecule `CC(C)c1nncn1-c1cc(C(=O)NC(C)(C)C)cc(-c2ccc(C3CC3)cc2)c1` [Example 35, N-tert-Butyl-3-(4-cyclopropyl-phenyl)-5-(3-propan-2-yl-1,2,4-triazol-4-yl)-benzamide] had a melting point of 120 °C. In addition, on human EAAT3, the Kb came to 130 nM.

`CC(C)(NC(=O)c1cc(-c2ccc(Cl)cc2)cc(-n2cnnc2CO)c1)C1CC1` [Example 37, 3-(4-Chlorophenyl)-N-(2-cyclopropyl-propan-2-yl)-5-[3-(hydroxymethyl)-1,2,4-triazol-4-yl]-benzamide]: the melting point came to 120 °C. Further, the antagonist dissociation constant (Kb) at human EAAT3 was 150 nM.

The values are drawn from patent US10273217B2, “Triazole derivatives” (Hoffmann-La Roche Inc., priority 2015, dated 2019).
